From US20100152129A1 (priority 2008, published 2010)

Tests used:
Type in all cases: cell-based
Panc-1 cells [1] = assay: Propidium iodide-based fluorescence cytotoxicity assay; conditions: single agent
Method: The combination of P276-00 and Gemcitabine was screened for its synergistic effect in Panc-1 cells using propidium iodide based fluorescence cytotoxicity assay.
Test System: The Panc-1 cell line was procured from ATCC (American Tissue type Culture Collection), USA. Catalog number: CRL-1469 and the frozen vial was stored in liquid nitrogen container. Propidium iodide dye was procured from Sigma-Aldrich, USA. Catalog number: P-4170-100 mg and it was stored at 2-8° C.
Method: Panc-1 cells were seeded at a density of 2000 cells/well, in a 200 μL in tissue culture grade 96 well plate and allowed to recover for 24 hrs in a humidified 5%±0.2 CO2 incubator at 37° C.±0.5° C. After 24 hrs, 1 μL of 200 X (200 times higher than required concentration is denoted as 200×) compound (dissolved in neat DMSO), as per Table 1 or 2 was added to the wells. The final DMSO concentration was 0.5% in wells. The plate was incubated for 24 hrs in humidified 5%±0.2 CO2 incubator at 37±0.5° C.
After 24 hrs Minimum Essential Medium (MEM) from the Gemcitabine treated wells was removed and washed two times with fresh MEM and followed by addition of 200 μL of fresh MEM per well. 1 μL of 200× (200 times higher than required concentration is denoted as 200×) compound (dissolved in neat DMSO) was then added as per the Table 1 and 2 designs. The final DMSO concentration was 0.5% in wells which also served as the vehicle control for the study. After 72 hrs the plate was removed from CO2 incubator and spent MEM aspirated from the wells and supplemented with fresh MEM. This was followed by addition of 25 μL of propidium iodide (50 μg/ml in medium) per well. The same plate was frozen at −80° C. for 24 hrs and then thawed and allowed to come to room temperature. The fluorescence at a wavelength of 530 nm excitation and 620 nm emission was read.
The percent cytotoxicity was calculated using the following formula

Panc-1 cells [2] = assay: Cell cycle analysis by DNA content (propidium iodide, flow cytometry); conditions: control 5.5%
Method: Understanding the status of cells cycles G1, S, G2 and M is indicative of the cytotoxic effect including apoptosis and DNA damage of anticancer drugs. In the current study FACS was used to measure the cell cycle stages in Panc 1 cells after exposure to anticancer drugs including drug combination. The synergistic effect of Gemcitabine with […]-00 on Panc-1 cancer cells was analyzed using propidium iodide based cell cycle analysis where total population of cells was sorted as sub G0, G1, S and G2/M populations according to total fluorescent intensity. […]-00 at a final concentration of 60 nM, 240 nM and 480 nM and Gemcitabine at a final concentration of 1 nM, 3 nM and 10 nM were analyzed in single dose and in all possible combinations of the dose range for the Gemcitabine and […]-00. Panc-1 cells were treated with Gemcitabine for 0 to 24 hrs. After 24 hrs the cells were washed twice with plain MEM. Fresh MEM with 10% serum (2 mL/well) was added to the wells, followed by treatment with […]-00 for 24 hrs to 96 hrs. After 96 hrs the treated cells were harvested, fixed, stained with propidium iodide and analyzed for specific cell arrest using DNA content analysis by flow cytometry. Adherent cells were trypsinized and washed with PBS or HBSS without Ca++ and Mg++ containing EDTA pH 8.0 and BSA. They were further isolated, centrifuged and total number of cells were counted and recorded. […]

Panc-1 cells [3] = assay: Protein expression using high content cell imaging system, and efficacy score; conditions: for Efficacy score: cumulative over proteins of Table 7
Method: The data was generated using cell imaging system, where, cells after drug exposure were treated with protein specific antibody, followed by detection markers for the antibody. The images were generated and protein levels quantitated as an indication of drug effect.
Methodology: Panc-1 cells were seeded at a density of 5000 cells per well in 96 well plates and allowed recovery for 24 hrs in 5% CO2 incubator. After recovery, cells were challenged with Gemcitabine (IC30) for 24 hrs. After 24 hrs Gemcitabine was removed and fresh medium was added. […] The combination efficacy was identified against single treatments. At the end of the experiment Panc-1 cells were fixed and permeabilized. All the primary antibodies were added at a concentration according to manufacture protocol. After one hour incubation the cells were washed three times and labeled with secondary antibodies tagged with Dye Light 548 and nucleus was stained with Hoechest3342. After antibody labeling, cells were stained with the Cellomics whole Cell Stain Green to identify the cell's cytoplasmic area. Then all the plates were scanned in Cellomics ArrayScan® VTI HCS Reader. The results were analyzed using software that is designed for measuring the read from the imaging system.
Expression of proteins listed in Table 7 were determined in terms of fluorescence unit obtained by using target activation algorithm from High content imaging system from Cellomics. • Protein expression data expressed as fluorescent units from Table 7 were used to generate expression ratio by comparing drug treatments (individual or combination) against the normal control with no drug treatment. The ratio of expression which is considered as dys-regulation (1.5 fold above or below the range for up-regulation and down regulation respectively) is subtracted from the normal range (±1.5) and is used to measure the efficacy score.
Expression ratio=protein expression during drug treatment/protein expression under normal control.
Efficacy score =Cumulative score (expression ratio−±1.50) for all proteins.

[4] = 6 hours post treatment, control 1
[5] = 6 hours post treatment, control 3
[6] = 6 hours post treatment, control 6
[7] = 6 hours post treatment, control 7
[8] = 6 hours post treatment, control 8
[9] = 6 hours post treatment, control 74
[10] = 6 hours post treatment, control 80
[11] = 6 hours post treatment, control 147
[12] = 6 hours post treatment, control 501
[13] = 6 hours post treatment, control 627
[14] = 6 hours post treatment, control 635
[15] = 6 hours post treatment, control 819
[16] = 6 hours post treatment, control 829
[17] = 6 hours post treatment, control 830
[18] = 6 hours post treatment, control 1240
[19] = 16 hours post treatment, control 13
[20] = 16 hours post treatment, control 54
[21] = 16 hours post treatment, control 64
[22] = 16 hours post treatment, control 67
[23] = 16 hours post treatment, control 76
[24] = 16 hours post treatment, control 77
[25] = 16 hours post treatment, control 90
[26] = 16 hours post treatment, control 100
[27] = 16 hours post treatment, control 202
[28] = 16 hours post treatment, control 579
[29] = 16 hours post treatment, control 644
[30] = 16 hours post treatment, control 711
[31] = 16 hours post treatment, control 718
[32] = 16 hours post treatment, control 929
[33] = 16 hours post treatment, control 1109
[34] = 16 hours post treatment, control 2583
[35] = 36 hours post treatment, control 19
[36] = 36 hours post treatment, control 96
[37] = 36 hours post treatment, control 98
[38] = 36 hours post treatment, control 100
[39] = 36 hours post treatment, control 265
[40] = 36 hours post treatment, control 715
[41] = 36 hours post treatment, control 722
[42] = 36 hours post treatment, control 1093
[43] = 36 hours post treatment, control 1316
[44] = 36 hours post treatment, control 1410
[45] = 36 hours post treatment, control 1441
[46] = 36 hours post treatment, control 2840

Compound: Nc1ccn([C@@H]2O[C@H](CO)[C@@H](O)C2(F)F)c(=O)n1 [Gemcitabine, 2′, 2′-difluorodeoxycytidine]
- cytotoxicity at 0.0001 µM (Panc-1 cells [1]; Homo sapiens, PANC-1, 0.1 nM): 10%
- population of cells in sub G0 (apoptotic cells) (Panc-1 cells [2]; 1 nM alone): 16.85%
- PTN protein expression (Panc-1 cells [3]; [4]): 6 fluorescence units
- GADD45-α protein expression (Panc-1 cells [3]; [5]): 4 fluorescence units
- ID1 protein expression (Panc-1 cells [3]; [5]): 7 fluorescence units
- P27 protein expression (Panc-1 cells [3]; [6]): 4 fluorescence units
- CDC25B protein expression (Panc-1 cells [3]; [7]): 8 fluorescence units
- CDKN2A protein expression (Panc-1 cells [3]; [8]): 60 fluorescence units
- CCND1 protein expression (Panc-1 cells [3]; [9]): 83 fluorescence units
- GAPDH protein expression (Panc-1 cells [3]; [10]): 84 fluorescence units
- CASP3 protein expression (Panc-1 cells [3]; [11]): 115 fluorescence units
- MMP-1 protein expression (Panc-1 cells [3]; [12]): 448 fluorescence units
- COX15 protein expression (Panc-1 cells [3]; [13]): 1100 fluorescence units
- COX2 protein expression (Panc-1 cells [3]; [14]): 462 fluorescence units
- BAX protein expression (Panc-1 cells [3]; [15]): 892 fluorescence units
- VEGF protein expression (Panc-1 cells [3]; [16]): 448 fluorescence units
- BCL2 protein expression (Panc-1 cells [3]; [17]): 630 fluorescence units
- pRB protein expression (Panc-1 cells [3]; [18]): 1318 fluorescence units
- Efficacy score (Panc-1 cells [3]; 6 hours): 1.6
- GADD45-α protein expression (Panc-1 cells [3]; [19]): 70 fluorescence units
- CDC25B protein expression (Panc-1 cells [3]; [20]): 50 fluorescence units
- CDKN2A protein expression (Panc-1 cells [3]; [21]): 57 fluorescence units
- P27 protein expression (Panc-1 cells [3]; [22]): 72 fluorescence units
- PTN protein expression (Panc-1 cells [3]; [23]): 68 fluorescence units
- ID1 protein expression (Panc-1 cells [3]; [24]): 62 fluorescence units
- CCND1 protein expression (Panc-1 cells [3]; [25]): 66 fluorescence units
- GAPDH protein expression (Panc-1 cells [3]; [26]): 98 fluorescence units
- CASP3 protein expression (Panc-1 cells [3]; [27]): 570 fluorescence units
- VEGF protein expression (Panc-1 cells [3]; [28]): 604 fluorescence units
- BCL2 protein expression (Panc-1 cells [3]; [29]): 693 fluorescence units
- BAX protein expression (Panc-1 cells [3]; [30]): 926 fluorescence units
- COX15 protein expression (Panc-1 cells [3]; [31]): 1134 fluorescence units
- MMP-1 protein expression (Panc-1 cells [3]; [32]): 604 fluorescence units
- COX2 protein expression (Panc-1 cells [3]; [33]): 1151 fluorescence units
- pRB protein expression (Panc-1 cells [3]; [34]): 1931 fluorescence units
- Efficacy score (Panc-1 cells [3]; 16 hours): 7.6
- GADD45-α protein expression (Panc-1 cells [3]; [35]): 51 fluorescence units
- COX2 protein expression (Panc-1 cells [3]; 36 hours post treatment, control 86): 55 fluorescence units
- P27 protein expression (Panc-1 cells [3]; [36]): 67 fluorescence units
- CCND1 protein expression (Panc-1 cells [3]; [37]): 75 fluorescence units
- CDC25B protein expression (Panc-1 cells [3]; [37]): 29 fluorescence units
- GAPDH protein expression (Panc-1 cells [3]; [37]): 59 fluorescence units
- ID1 protein expression (Panc-1 cells [3]; [37]): 26 fluorescence units
- PTN protein expression (Panc-1 cells [3]; [38]): 94 fluorescence units
- CASP3 protein expression (Panc-1 cells [3]; [39]): 633 fluorescence units
- BAX protein expression (Panc-1 cells [3]; [40]): 1783 fluorescence units
- COX15 protein expression (Panc-1 cells [3]; [41]): 1990 fluorescence units
- VEGF protein expression (Panc-1 cells [3]; [42]): 807 fluorescence units
- MMP-1 protein expression (Panc-1 cells [3]; [43]): 807 fluorescence units
- BCL2 protein expression (Panc-1 cells [3]; [44]): 698 fluorescence units
- CDKN2A protein expression (Panc-1 cells [3]; [45]): 1483 fluorescence units
- pRB protein expression (Panc-1 cells [3]; [46]): 2188 fluorescence units
- Efficacy score (Panc-1 cells [3]; 36 hours): 7.4

Compound: CN1CC[C@@H](c2c(O)cc(O)c3c(=O)cc(-c4ccccc4Cl)oc23)[C@@H]1CO.Cl (relative stereo) [P276-00, (+)-trans-2-(2-Chloro-phenyl)-5,7-dihydroxy-8-(2-hydroxy-methyl-1-methyl-pyrrolidin-3-y1)-chromen-4-one hydrochloride]
- % Cytotoxicity (Panc-1 cells [1]; 60 nM): 27%
- % Cytotoxicity (Panc-1 cells [1]; 120 nM): 33%
- % Cytotoxicity (Panc-1 cells [1]; 240 nM): 35%
- % Cytotoxicity (Panc-1 cells [1]; 480 nM): 45%
- % Cytotoxicity (Panc-1 cells [1]; 960 nM): 58%
- population of cells in sub G0 (apoptotic cells) (Panc-1 cells [2]; 60 nM alone): 17.6%
- PTN protein expression (Panc-1 cells [3]; [4]): 2 fluorescence units
- GADD45-α protein expression (Panc-1 cells [3]; [5]): 10 fluorescence units
- ID1 protein expression (Panc-1 cells [3]; [5]): 1 fluorescence units
- P27 protein expression (Panc-1 cells [3]; [6]): 7 fluorescence units
- CDC25B protein expression (Panc-1 cells [3]; [7]): 2 fluorescence units
- CDKN2A protein expression (Panc-1 cells [3]; [8]): 76 fluorescence units
- CCND1 protein expression (Panc-1 cells [3]; [9]): 84 fluorescence units
- GAPDH protein expression (Panc-1 cells [3]; [10]): 96 fluorescence units
- CASP3 protein expression (Panc-1 cells [3]; [11]): 152 fluorescence units
- MMP-1 protein expression (Panc-1 cells [3]; [12]): 618 fluorescence units
- COX15 protein expression (Panc-1 cells [3]; [13]): 907 fluorescence units
- COX2 protein expression (Panc-1 cells [3]; [14]): 406 fluorescence units
- BAX protein expression (Panc-1 cells [3]; [15]): 700 fluorescence units
- VEGF protein expression (Panc-1 cells [3]; [16]): 618 fluorescence units
- BCL2 protein expression (Panc-1 cells [3]; [17]): 376 fluorescence units
- pRB protein expression (Panc-1 cells [3]; [18]): 1540 fluorescence units
- Efficacy score (Panc-1 cells [3]; 6 hours): 4.7
- GADD45-α protein expression (Panc-1 cells [3]; [19]): 23 fluorescence units
- CDC25B protein expression (Panc-1 cells [3]; [20]): 15 fluorescence units
- CDKN2A protein expression (Panc-1 cells [3]; [21]): 9 fluorescence units
- P27 protein expression (Panc-1 cells [3]; [22]): 12 fluorescence units
- PTN protein expression (Panc-1 cells [3]; [23]): 12 fluorescence units
- ID1 protein expression (Panc-1 cells [3]; [24]): 18 fluorescence units
- CCND1 protein expression (Panc-1 cells [3]; [25]): 46 fluorescence units
- GAPDH protein expression (Panc-1 cells [3]; [26]): 100 fluorescence units
- CASP3 protein expression (Panc-1 cells [3]; [27]): 607 fluorescence units
- VEGF protein expression (Panc-1 cells [3]; [28]): 264 fluorescence units
- BCL2 protein expression (Panc-1 cells [3]; [29]): 81 fluorescence units
- BAX protein expression (Panc-1 cells [3]; [30]): 644 fluorescence units
- COX15 protein expression (Panc-1 cells [3]; [31]): 852 fluorescence units
- MMP-1 protein expression (Panc-1 cells [3]; [32]): 264 fluorescence units
- COX2 protein expression (Panc-1 cells [3]; [33]): 375 fluorescence units
- pRB protein expression (Panc-1 cells [3]; [34]): 1400 fluorescence units
- Efficacy score (Panc-1 cells [3]; 16 hours): 10.8
- GADD45-α protein expression (Panc-1 cells [3]; [35]): 31 fluorescence units
- P27 protein expression (Panc-1 cells [3]; [36]): 5 fluorescence units
- CCND1 protein expression (Panc-1 cells [3]; [37]): 25 fluorescence units
- CDC25B protein expression (Panc-1 cells [3]; [37]): 4 fluorescence units
- GAPDH protein expression (Panc-1 cells [3]; [37]): 2 fluorescence units
- ID1 protein expression (Panc-1 cells [3]; [37]): 6 fluorescence units
- PTN protein expression (Panc-1 cells [3]; [38]): 100 fluorescence units
- CASP3 protein expression (Panc-1 cells [3]; [39]): 670 fluorescence units
- BAX protein expression (Panc-1 cells [3]; [40]): 1120 fluorescence units
- COX15 protein expression (Panc-1 cells [3]; [41]): 1327 fluorescence units
- VEGF protein expression (Panc-1 cells [3]; [42]): 355 fluorescence units
- MMP-1 protein expression (Panc-1 cells [3]; [43]): 355 fluorescence units
- BCL2 protein expression (Panc-1 cells [3]; [44]): 374 fluorescence units
- CDKN2A protein expression (Panc-1 cells [3]; [45]): 707 fluorescence units
- pRB protein expression (Panc-1 cells [3]; [46]): 1657 fluorescence units
- Efficacy score (Panc-1 cells [3]; 36 hours): 11.1
